Assays:
Assay type in all cases: in vivo
[1] = system: Green Peach Aphid (Myzus persicae); test: Green peach aphid through systemic means, artificial diet under membrane; settings: 72 h, pipetted into aphid diet, 3 days, read-out: mortality in comparison with untreated controls
Text: II.6 Activity Against Green Peach Aphid (Myzus persicae)
For evaluating control of green peach aphid (Myzus persicae) through systemic means the test unit consisted of 96-well-microtiter plates containing liquid artificial diet under an artificial membrane.
The compounds were formulated using a solution containing 75% v/v water and 25% v/v DMSO. Different concentrations of formulated compounds were pipetted into the aphid diet, using a custom built pipetter, at two replications. After application, 5 to 8 adult aphids were placed on the artificial membrane inside the microtiter plate wells. The aphids were then allowed to suck on the treated aphid diet and incubated at about 23+1° C. and about 50+5% relative humidity for 3 days. Aphid mortality and fecundity was then visually assessed.

[2] = system: Green Peach Aphid (Myzus persicae, mixed life stages); test: Green peach aphid, method a (leaf dip, pepper plants); settings: foliar, 120 h, leaves dipped, after 5 days, read-out: mortality in comparison with untreated controls
Text: II.2 Green Peach Aphid (Myzus persicae, Mixed Life Stages)
The active compounds were formulated in 50:50 (vol:vol) acetone:water and 100 ppm Kinetica™ (from Helena Chemical Co.) surfactant.
Pepper plants in the 2nd leaf-pair stage (variety ‘California Wonder’) were infested with approximately 40 laboratory-reared aphids by placing infested leaf sections on top of the test plants. The leaf sections were removed after 24 hr. The leaves of the intact plants were dipped into gradient solutions of the test compound and allowed to dry. Test plants were maintained under fluorescent light (24 hour photoperiod) at about 25° C. and 20-40% relative humidity. Aphid mortality on the treated plants, relative to mortality on check plants, was determined after 5 days.

[3] = system: Vetch Aphid (Megoura viciae); test: Vetch aphid, bean leaf disks in microtiterplates; settings: foliar, 144 h, test solution 2500 mg/L, leaf disks sprayed, 6 days
Protocol: II.4 Vetch Aphid (Megoura viciae)
The active compounds were formulated in 1:3 (vol:vol) DMSO:water with different concentrations of formulated compounds.
Bean leaf disks were placed into microtiterplates filled with […] and 2.5 ppm OPUS™ (from BASF SE, conazole). The leaf disks were sprayed with 2.5 μl of the test solution and 5 to 8 adult aphids were placed into the microtiterplates which were then closed and kept at 23±1° C. and 50±5% relative humidity under fluorescent light for 6 days. Mortality was assessed on the basis of vital, reproduced aphids. Aphid mortality and fecundity was then visually assessed.

[4] = system: Cowpea Aphid (Aphis craccivora); test: Cowpea aphid, sprayed potted cowpea plants; settings: population reduction assessed after 24, 72 and 120 hours, read-out: mortality in comparison with untreated controls
Protocol: II.3 Cowpea Aphid (Aphis craccivora)
The active compounds were formulated in 50:50 (vol:vol) acetone:water. The test solution was prepared at the day of use.
Potted cowpea plants colonized with 100-150 aphids of various stages were sprayed after the pest population had been recorded. Population reduction was assessed after 24, 72, and 120 hours.

[5] = system: Cotton Aphid (Aphis gossypii, mixed life stages); test: Cotton aphid, method a (cotyledon dip); settings: 120 h, cotyledons dipped, counts after 5 days, read-out: mortality in comparison with untreated controls
Text: II.1 Cotton Aphid (Aphis gossypii, Mixed Life Stages)
The active compounds were formulated in 50:50 (vol:vol) acetone: water and 100 ppm Kinetica™ (from Helena Chemical Co.) surfactant.
Cotton plants at the cotyledon stage (one plant per pot) were infested by placing a heavily infested leaf from the main colony on top of each cotyledon. The aphids were allowed to transfer to the host plant overnight, and the leaf used to transfer the aphids was removed. The cotyledons were dipped in the test solution and allowed to dry. After 5 days, mortality counts were made.

O=C(Nc1cccnc1)c1conc1C1CC1 [Example 15, 3-Cyclopropyl-isoxazole-4-carboxylic acid pyridin-3-ylamide]
mortality at 2500 ppm [1]: 100% | mortality at 300 ppm [2]: ≥ 90% | mortality at 2500 µg/mL [3]: ≥ 90% | mortality at 300 ppm [4]: ≥ 90% | mortality at 300 ppm [5]: ≥ 90%

Reference: patent US9125414B2, “Pyridine derivatives compounds for controlling invertebrate pests” (BASF SE, priority 2009, dated 2015)
